Test results published in patent US6383772B1, “Enzymatic conversion in a solvent mixture containing water and flourinated, non-chlorinated solvent” (Advanced Phytonic Limited, priority 1997, dated 2002).

Columns and labels:
[1] = background statement; cited from earlier work
[2] = Solubility of 6-APA in Phytosol solvent; assay type: physicochemical
[3] = Effect of pH on extraction of PAA from enzymatic liquor with Phytosol D; assay type: physicochemical; conditions: 20 ml enzymatic liquor extracted with 40 ml Phytosol D
Protocol: This example was carried out to assess the efficiency and selectivity of Phytosol D in extracting PAA from the enzymatic liquor at different pH's.
The enzymatic liquor was prepared as described in Example 1 using the enzyme resin from Example C2.
20 ml samples of the liquor were extracted with 40 ml of Phytosol D, at various pH's, using hand held apparatus as follows:
The apparatus consists of a 100 ml graduated glass tube fitted with a filter assembly and a clamping ring which in turn is fitted with a needle valve. The material or solution to be extracted is charged into the tube. The filter is then assembled with the aid of a sealing O ring followed by the clamping ring ensuring that a tight fit is achieved. Phytosol liquid gas is introduced to the glass tube from an aerosol can via the needle valve. The contents of the tube are mixed by vigorous shaking after which the tube is inverted and allowed to stand until the two layers are separated. The Phytosol is then released via the needle valve into an evaporator bottle taking care not to allow any of the aqueous layer to co-discharge.

## CC1(C)S[C@@H]2[C@H](N)C(=O)N2[C@H]1C(=O)O [6-APA, 6-Aminopenicillanic acid]
[1]
  solubility in water: around 2%
[2]
  solubility in the solvent: negligible
[3]; pH 1.4
  Removed (% of total w/w): <1 % of total w/w
[3]; pH 3.8
  Removed (% of total w/w): <1 % of total w/w
[3]; pH 5.3
  Removed (% of total w/w): 0 % of total w/w
[3]; pH 6.5
  Removed (% of total w/w): 0 % of total w/w
[3]; pH 8.0
  Removed (% of total w/w): 0 % of total w/w

## O=C(O)Cc1ccccc1 [PAA, Phenylacetic acid]
[3]; pH 1.4
  Removed (% of total w/w): >99 % of total w/w
[3]; pH 3.8
  Removed (% of total w/w): >99 % of total w/w
[3]; pH 5.3
  Removed (% of total w/w): 6.5 % of total w/w
[3]; pH 6.5
  Removed (% of total w/w): <2 % of total w/w
[3]; pH 8.0
  Removed (% of total w/w): 0 % of total w/w
